Assay [1] concerns Clock protein. In words: Immunolabeling of Clock protein in skin biopsies ex vivo. It counts as cell-based, human. The note with it: treated skin. Here is the method: (§1) A study of the activating effect of the peptide SEQ ID no. 3 was carried out by evaluating the expression of Clock, Per-1 and BMAL-1 proteins in skin biopsies ex vivo.
(§2) Ex vivo studies by immunolabeling have made it possible to evidence the expression of Clock, Per-1 and BMAL-1 proteins in skin samples. Samples of human skin are cultured at the air/liquid interface. The peptide SEQ ID no. 3 diluted to 1% (from a 10^−4M solution) is applied topically to these samples for 48 hr.
(§3) Skin samples not treated with the peptide SEQ ID no. 3 serve as a control. The skin samples are fixed with 10% formaldehyde and enclosed in paraffin. Sectional cuts of 3 μm are then made with a microtome. The immunolabeling is carried out after removal of the paraffin and unmasking of the antigenic sites. The immunolabeling for the Clock protein is carried out by means of an antibody (ABcam) diluted 1/250 and a secondary antibody diluted 1/50 and coupled to a fluorochrome.
(§4) The slides are then mounted in a suitable medium and observed under epifluorescence microscope (Nikon Eclipse E600).

For assay [2], the system named is Per-1 protein. The assay is described as follows: Immunolabeling of Per-1 protein in skin biopsies ex vivo. The note with it: treated skin. It counts as cell-based, human. On the procedure:
as §1, §2, §3
The immunolabeling for the Per-1 protein is carried out by a polyclonal antibody (Cosmobio) diluted 1/100 and a secondary antibody diluted 1/50 and coupled to a fluorochrome.
as §4

Assay [3] concerns BMAL-1 protein. The assay is described as follows: Immunolabeling of BMAL-1 protein in skin biopsies ex vivo. The note with it: treated skin. It counts as cell-based, human. On the procedure:
as §1, §2, §3
The immunolabeling for the BMAL-1 protein is carried out by a polyclonal antibody (Aviva Systems Biology) diluted 1/120 and a secondary antibody diluted 1/50 and coupled to a fluorochrome.
as §4

In assay [4] the test system is Clock protein. The assay is described as follows: Immunolabeling of Clock protein in skin samples aged artificially during culture. It counts as cell-based, human. On the procedure:
A study of the activating effect of the peptide SEQ ID no. 3 was carried out by evaluating the expression of the Clock protein in skin models, aged artificially during culture. The analysis was carried out after 62 hr and 134 hr of culturing.
Ex vivo studies by immunolabeling have made it possible to evidence the expression of the Clock protein in skin samples aged during culture. Samples of human skin are cultured at the air/liquid interface for 62 hr and 134 hr. The peptide SEQ ID no. 1 diluted to 1% (from a 10^−4M solution) is applied topically to these samples at a rate of two times per day during the period of the experiment.
Skin samples not treated with the peptide SEQ ID no. 3 serve as a control. The skin samples are fixed with 10% formaldehyde and enclosed in paraffin. Sectional cuts of 3 μm are made with a microtome. The immunolabeling is carried out after removal of the paraffin and unmasking of the antigenic sites. The immunolabeling for the Clock protein is carried out by means of an anti-rabbit antibody (ABcam) diluted 1/250 and a secondary antibody diluted 1/50 and coupled to a fluorochrome.
as §4

In assay [5] the test system is cultured fibroblasts. The assay is described as follows: Beta-galactosidase (X-gal) senescence labeling of cultured fibroblasts. Format: cell-based. The note with it: peptide diluted to 1%, once a day, versus untreated control cells. On the procedure: A study of the anti-aging effect of the peptide SEQ ID no. 3 was carried out by evaluating the activity of the beta-galactosidase on cultured fibroblasts in the short and long term. In fact, beta-galactosidase is known to be present in senescent cells whereas beta-galactosidase activity is not found in pre-senescent, quiescent or immortal cells.
Fibroblasts cultured in 8-well labtecks are kept for 2 weeks (short term effect) or 7 weeks (long term effect) in the presence or absence of the peptide SEQ ID no. 3, diluted to 1% (from a 10^−4M solution). The treatment is carried out once a day. The cells which were untreated, but kept in culture for 2 or 7 weeks per the requirements of the experiment serve as controls. On the day of labeling, the cells are rinsed, fixed in a mixture (2% glutaraldehyde-2% formaldehyde) for 3 minutes. The cells are rinsed and 300 μl of (5-bromo-4-chloro-3 indolyl b-D-galactosidase), known commonly as X-gal (substrate of beta-galactosidase), are applied. Incubation is carried out for 24 hr in an incubator in the presence of CO2, then the cells are rinsed and the labteck is quickly placed in a suitable medium. Observation is carried out under transmission microscope. The principle is simple: when the cells are senescent and contain beta-galactosidase, the X-gal substrate is cleaved into a blue, insoluble product.

For assay [6], the system named is Clock protein. The assay is described as follows: Western blot of Clock protein expression in cultured fibroblasts. Format: cell-based. Here is the method: A study of the activating effect of the peptide SEQ ID no. 2 was carried out by evaluating the expression of the Clock proteins by western blot in cultured fibroblasts. The technique of western blotting is a semi-quantitative method which makes it possible to evaluate the level of Clock proteins in cells.
Cultured fibroblasts are cultivated in containers with a diameter of 100 mm at 37° C. in a humidified atmosphere containing 5% CO2 for 18 hr in the presence or absence of the peptide SEQ ID no. 2, diluted to 1% (from a 10^−4M solution). The cells are rinsed and then removed from the support with the aid of an extraction buffer (20 mM TRIS, 150 mM NaCl, 10 mM EDTA, 0.2% triton […]) in the presence of a cocktail of protease inhibitors (Sigma). The proteins thus extracted are centrifuged at 4° C. at 10,000 rpm for 10 minutes, before being dosed by the BCA protein dosing kit (Pierce). The cellular lysates are mixed with a denaturing buffer and subjected to SDS-PAGE electrophoresis. The gel used is 4-12% Nupage (Invitrogen). The proteins are then transferred to a nitrocellulose membrane (Pal corporation). […] The quantitative evaluation of the proteins present in the cells was carried out using the chemiimager software (Alpha innotech Corporation USA).
In general terms: Immunoblotting shows a protein as a band on a membrane.

Where no end group is shown, it is not given here.

These results are taken from patent publication US20110269695A1, “NOVEL ANTI-AGING PEPTIDES AND COSMETIC AND/OR PHARMACEUTICAL COMPOSITION CONTAINING SAME” (ISP INVESTMENTS, priority 2009, published 2011).

On to Ser-Thr-Pro-NH2 [SEQ ID no. 3], for which the “amount of Clock protein versus untreated skin” value in assay [1] is “greater”. Besides, in assay [2], the “amount of PER-1 protein versus untreated skin” value was “greater”. Moreover, the “amount of BMAL-1 protein versus untreated skin” value in assay [3] is given as “greater”. Besides, the “labeling of the Clock protein compared to untreated control, 62 hr” value in assay [4] (after 62 hr of culturing) is given as “increased”. Further, the “labeling of the Clock protein compared to untreated control, 134 hr” value in assay [4] (after 134 hr) was “largely increased”. Further, the “Beta-galactosidase activity (blue coloration), short term” value in assay [5] (2 weeks) is “largely reduced”. In addition, the “Beta-galactosidase activity (blue coloration), long term” value in assay [5] (7 consecutive weeks) is given as “largely reduced”.
As for “Val-Ser-Thr-Pro-Glu-NH2 (VSTPE-NH2) [SEQ ID no. 2]”, the “Intensity (%) of Clock protein, Experiment 1” value in assay [6] (1% treatment (from a 10^-4M solution), 18 hr, cultured fibroblasts, luminous intensity compared to untreated control (100%)) is on record as 154%. Further, the “amount of Clock protein in the cultured fibroblasts” value in assay [6] (peptide diluted to 1%, western blot) is “significantly increases”.
